From ChEMBL document CHEMBL1126737, “Toward a novel metal-based chemotherapy against tropical diseases. 1. Enhancement of the efficacy of clotrimazole against Trypanosoma cruzi by complexation to ruthenium in RuCl2(clotrimazole)2” (J Med Chem, 1993)

Assays:
[1] = Effective concentration that inhibits growth of Trypanosoma cruzi by 50% was reported; type: functional
[2] = test system: Vero; experiment: Effective concentration to inhibit the proliferation of amastigote form of the parasite grown on mammalian (Vero) cells; type: functional, cell-based, Chlorocebus sabaeus
[3] = test system: Trypanosoma cruzi; experiment: Inhibition of the proliferation of epimastigote form of Trypanosoma cruzi was determined at 10 e-5 M; type: functional

Compound	EC50 [1] [µM]	EC50 [2] [µM]	inhibition [3] [%]
Clc1ccccc1C(c1ccccc1)(c1ccccc1)n1ccnc1 [CLOTRIMAZOLE]	3		
RuCl2(clotrimazole)2 [listing 1 of 2 here]	0.1	0.005	
RuCl2(clotrimazole)2 [listing 2 of 2 here]			90
